Values of other authors, collected in patent US6689905B2, “Stereoisomers of 3-aminotricyclo[2.2.1.0(2.6)]heptane-1,3-dicarboxylic acid” (Wyeth, priority 2001, dated 2004).

Target: type 2 mGlu receptors (Homo sapiens, UniProt Q14416)
Conditions: literature description

Chain of type 2 mGlu receptors (Q14416 19-872): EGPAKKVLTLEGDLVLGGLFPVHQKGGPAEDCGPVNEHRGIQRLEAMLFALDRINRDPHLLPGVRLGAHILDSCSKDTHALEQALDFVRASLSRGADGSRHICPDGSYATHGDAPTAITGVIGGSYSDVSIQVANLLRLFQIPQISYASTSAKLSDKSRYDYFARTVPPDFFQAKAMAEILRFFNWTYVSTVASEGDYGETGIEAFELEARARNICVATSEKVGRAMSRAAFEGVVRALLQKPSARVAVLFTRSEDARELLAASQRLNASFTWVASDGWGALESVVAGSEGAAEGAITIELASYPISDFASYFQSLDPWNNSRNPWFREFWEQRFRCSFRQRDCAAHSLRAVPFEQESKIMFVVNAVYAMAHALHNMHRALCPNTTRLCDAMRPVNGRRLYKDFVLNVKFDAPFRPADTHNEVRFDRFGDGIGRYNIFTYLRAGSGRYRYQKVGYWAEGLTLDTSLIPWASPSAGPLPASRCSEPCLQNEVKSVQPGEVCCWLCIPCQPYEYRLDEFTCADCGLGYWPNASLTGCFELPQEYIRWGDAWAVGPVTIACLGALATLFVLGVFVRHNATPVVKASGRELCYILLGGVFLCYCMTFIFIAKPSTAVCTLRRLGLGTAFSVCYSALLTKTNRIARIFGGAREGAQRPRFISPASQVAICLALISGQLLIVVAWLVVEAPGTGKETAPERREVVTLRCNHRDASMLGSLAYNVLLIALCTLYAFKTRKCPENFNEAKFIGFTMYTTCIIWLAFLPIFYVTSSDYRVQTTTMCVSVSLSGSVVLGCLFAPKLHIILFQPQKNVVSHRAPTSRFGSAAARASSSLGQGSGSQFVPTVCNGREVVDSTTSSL

- functional character at type 2 mGlu receptors: agonists
Compound: NC1(C(=O)O)CC2CCC1C2C(=O)O (stereo not drawn) [ABHD-I, 2-endo-aminobicyclo[2.2.1]heptane-2-exo-7-anti-dicarboxylic acid]
